Measured values published in PMC4744035, “In Vivo, In Vitro, and In Silico Characterization of Peptoids as Antimicrobial Agents” (PLoS ONE, 2016).
Converted amounts (≈) assume the structure as drawn. Numbered stars: 1 amine (or outer) side, 2 acyl side, 3 side chain; on linkers, the order of the positions; unused ones are H or OH. Square brackets hold non-standard residues; d marks the D form. Peptide text beside a SMILES is read from it. X1 = CC(C)[C@H](C)N(CC(=O)[*:2])[*:1]; Nspe = C[C@H](NCC(=O)O)c1ccccc1; Nphe = O=C(O)CNCc1ccccc1; Nlys = NCCCCNCC(=O)O

Assays:
[1] = test system: erythrocytes; test: Hemolytic activity (HD10/HD50); type: cell-based
Description: Table 1 Characteristics of antimicrobial peptoids, screened for activity against B. subtilis and E. coli bacterial strains. | column: HD10 / HD50

[2] = test system: NIH 3T3 cells; test: Metabolic activity, MTS assay; type: cell-based, mouse
In short: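 Mouse NIH 3T3 fibroblast monolayers, about 5000 cells per well, washed and exposed to serially diluted peptoids in Hank's balanced salt solution. Metabolic activity read by MTS; average of six replicate trials.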

[3] = test system: B. subtilis ATCC 6633; type: cell-based
In short: (§1)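 MICs determined by 2:1 serial broth microdilution in cation-adjusted Mueller-Hinton broth per CLSI M7-A6, using inoculum at 1 x 10^6 CFU/mL mixed 1:1 with peptoid solution. Three independent replicates, each with two parallel trials.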

[4] = test system: E. coli ATCC 35218; type: cell-based
In short: as §1

[5] = test system: E. faecalis F43559 (VRE); test: microbe, parasite or virus in culture; conditions: F43559 (VRE)
In short: (§2)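 Agents were diluted serially at 10x in acetic acid/BSA, added to Mueller Hinton medium, then inoculated with bacteria at 2–7 x 10^5 CFU/mL. Plates were incubated overnight at 37°C and scored for growth.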

[6] = test system: P. maltophilia ATCC13637; test: microbe, parasite or virus in culture; conditions: ATCC13637
In short: as §2

[7] = test system: E. faecium T62764 (VRE); test: microbe, parasite or virus in culture; conditions: T62764 (VRE)
In short: as §2

[8] = test system: P. aeruginosa H103 (wild type); test: microbe, parasite or virus in culture; conditions: H103 (wild type)
In short: as §2

[9] = test system: E. faecalis ATCC29212; test: microbe, parasite or virus in culture
In short: as §2

[10] = test system: P. aeruginosa H1030 (MDR); test: microbe, parasite or virus in culture; conditions: P. aeruginosa H1030 (MDR)
In short: as §2

[11] = test system: E. cloacae 218R Class C β-lactamase; test: microbe, parasite or virus in culture; conditions: 218R Class C β-lactamase
In short: as §2

[12] = test system: P. aeruginosa 213 (MDR); test: microbe, parasite or virus in culture; conditions: 213 (MDR)
In short: as §2

[13] = test system: P. aeruginosa 198 (MDR); test: microbe, parasite or virus in culture; conditions: 198 (MDR)
In short: as §2

[14] = test system: S. aureus C623 (MRSA); test: microbe, parasite or virus in culture; conditions: C623
In short: as §2

[15] = test system: E. coli 63103 (ESBL); test: microbe, parasite or virus in culture; conditions: 63103 (ESBL)
In short: as §2

[16] = test system: K. pneumonia 61962 (ESBL); test: microbe, parasite or virus in culture
In short: as §2

[17] = test system: P. aeruginosa LES400 (MDR); test: microbe, parasite or virus in culture; conditions: LES400 (MDR)
In short: as §2

[18] = test system: E. coli 64771 (ESBL); test: microbe, parasite or virus in culture; conditions: 64771 (ESBL)
In short: as §2

[19] = test system: P. aeruginosa H1027 (MDR); test: microbe, parasite or virus in culture; conditions: H1027 (MDR)
In short: as §2

[20] = test system: E. faecium mic80 (VRE); test: microbe, parasite or virus in culture; conditions: mic80 (VRE)
In short: as §2

[21] = test system: E. faecalis W61950 (VRE); test: microbe, parasite or virus in culture; conditions: W61950 (VRE)
In short: as §2

[22] = test system: P. aeruginosa 9 (MDR); test: microbe, parasite or virus in culture; conditions: 9 (MDR)
In short: as §2

[23] = test system: K. pneumonia 63575 (ESBL); test: microbe, parasite or virus in culture
In short: as §2

[24] = test system: S. aureus ATCC25923; test: microbe, parasite or virus in culture; conditions: ATCC25923
In short: as §2

SMILES	HD10 (hemolytic activity) [1]	HD50 (hemolytic activity) [1]	ID50 (inhibitory dose, metabolic activity) [2] [µM]	MIC B. subtilis [3] [µM]	MIC E. coli [4] [µM]	MIC [5] [µg/mL]	MIC [6] [µg/mL]	MIC [7] [µg/mL]	MIC [8] [µg/mL]	MIC [10] [µg/mL]	MIC [11] [µg/mL]	MIC [12] [µg/mL]	MIC [13] [µg/mL]	MIC [14] [µg/mL]	MIC [15] [µg/mL]	MIC [16] [µg/mL]	MIC [17] [µg/mL]	MIC [18] [µg/mL]	MIC [19] [µg/mL]	MIC [20] [µg/mL]	also measured
CC(C)[C@H](C)N(CC(=O)N(CC(=O)N(CCCCN)CC(=O)N(CC(=O)N(CC(=O)N(CCCCN)CC(=O)N(CC(=O)N(CC(=O)N(CCCCN)CC(=O)N(CC(=O)N(CC(N)=O)[C@@H](C)c1ccccc1)[C@@H](C)C(C)C)[C@@H](C)c1ccccc1)[C@@H](C)C(C)C)[C@@H](C)c1ccccc1)[C@@H](C)C(C)C)[C@@H](C)c1ccccc1)C(=O)CNCCCCN [1-Nsdp2.5.8.11, H-(NLys-Nsdp-Nspe)4-NH2] (H-[Nlys][X1][Nspe][Nlys][X1][Nspe][Nlys][X1][Nspe][Nlys][X1][Nspe]-NH2)	111	> 200	20	0.78 (≈ 1.31 µg/mL)	12.5 (≈ 21 µg/mL)	32 (≈ 19 µM)	1 (≈ 0.594 µM)	2 (≈ 1.19 µM)	8 (≈ 4.75 µM)	16 (≈ 9.51 µM)	16 (≈ 9.51 µM)	16 (≈ 9.51 µM)	32 (≈ 19 µM)	8 (≈ 4.75 µM)	16 (≈ 9.51 µM)	64 (≈ 38 µM)	16 (≈ 9.51 µM)	8 (≈ 4.75 µM)	4 (≈ 2.38 µM)	4 (≈ 2.38 µM)	MIC ([9]; E. faecalis ATCC29212): 8 µg/mL (≈ 4.75 µM); MIC [21]: 32 µg/mL (≈ 19 µM); MIC [22]: 256 µg/mL (≈ 152 µM); MIC [23]: 32 µg/mL (≈ 19 µM); MIC [24]: 8 µg/mL (≈ 4.75 µM)
CC(C)[C@H](C)N(CC(N)=O)C(=O)CN(C(=O)CN(CCCCN)C(=O)CN(C(=O)CN(C(=O)CN(CCCCN)C(=O)CN(C(=O)CN(C(=O)CN(CCCCN)C(=O)CN(C(=O)CN(C(=O)CNCCCCN)[C@@H](C)C(C)C)[C@@H](C)C(C)C)[C@@H](C)C(C)C)[C@@H](C)C(C)C)[C@@H](C)C(C)C)[C@@H](C)C(C)C)[C@@H](C)C(C)C [Peptoid 1-Nsdpall, H-(NLys-Nsdp-Nsdp)4-NH2]	>200 / >200	>200 / >200	64	0.78 (≈ 1.21 µg/mL)	25 (≈ 38.7 µg/mL)	128 (≈ 82.7 µM)	1 (≈ 0.646 µM)	4 (≈ 2.59 µM)	32 (≈ 20.7 µM)	32 (≈ 20.7 µM)	32 (≈ 20.7 µM)	64 (≈ 41.4 µM)	128 (≈ 82.7 µM)	8 (≈ 5.17 µM)	64 (≈ 41.4 µM)	128 (≈ 82.7 µM)	32 (≈ 20.7 µM)	16 (≈ 10.3 µM)	4 (≈ 2.59 µM)	16 (≈ 10.3 µM)	MIC ([9]; ATCC29212): 64 µg/mL (≈ 41.4 µM); MIC [21]: 128 µg/mL (≈ 82.7 µM); MIC [22]: 256 µg/mL (≈ 165 µM); MIC [23]: 128 µg/mL (≈ 82.7 µM); MIC [24]: 16 µg/mL (≈ 10.3 µM)
C[C@@H](c1ccccc1)N(CC(=O)N(CC(=O)N(CCCCN)CC(=O)N(CC(=O)N(CC(=O)N(CCCCN)CC(=O)N(CC(=O)N(CC(=O)N(CCCCN)CC(=O)N(CC(=O)N(CC(N)=O)Cc1ccccc1)Cc1ccccc1)Cc1ccccc1)Cc1ccccc1)Cc1ccccc1)Cc1ccccc1)Cc1ccccc1)C(=O)CNCCCCN [Peptoid 1ach-Nspe2, H-(NLys-Nspe-Npm)- (NLys-Npm-Npm)3-NH2] (H-[Nlys][Nspe][Nphe][Nlys][Nphe][Nphe][Nlys][Nphe][Nphe][Nlys][Nphe][Nphe]-NH2)	160	> 200	11	0.78 (≈ 1.34 µg/mL)	6.3 (≈ 10.8 µg/mL)	16 (≈ 9.3 µM)	2 (≈ 1.16 µM)	2 (≈ 1.16 µM)	4 (≈ 2.32 µM)	32 (≈ 18.6 µM)	16 (≈ 9.3 µM)	8 (≈ 4.65 µM)	8 (≈ 4.65 µM)	4 (≈ 2.32 µM)	16 (≈ 9.3 µM)	64 (≈ 37.2 µM)	4 (≈ 2.32 µM)	8 (≈ 4.65 µM)	2 (≈ 1.16 µM)	4 (≈ 2.32 µM)	MIC ([9]; ATCC29212): 16 µg/mL (≈ 9.3 µM); MIC [21]: 32 µg/mL (≈ 18.6 µM); MIC [22]: 64 µg/mL (≈ 37.2 µM); MIC [23]: 32 µg/mL (≈ 18.6 µM); MIC [24]: 4 µg/mL (≈ 2.32 µM)
